Patent publication US20250019386A1, “PYRROLO[1,2-b]-2-PYRIDAZINONE COMPOUNDS AS 5-HT4 RECEPTOR AGONISTS” (SUVEN LIFE SCIENCES LIMITED, priority 2022, published 2025)

Key:
[1] = system: intestinal (jejunum) EMG activity; assay: Intestinal myoelectrical activity in male Wistar rats; format: in vivo; settings: p.o.
Procedure: Method: The telemetry transmitter (F40-EET; DSI, MA, USA) was implanted subcutaneously in the rat and the spring electrodes were implanted into the walls of intestine (jejunum) under isoflurane anesthesia. After two weeks of surgical recovery, animals were fasted for 14 h and transferred to recording cages. The transmitter was switched on using magnetic switch and baseline intestinal EMG activity was recorded for 3 h. Rats were treated with vehicle, test compound of example 2 (10 or 30 mg/kg, p.o.) or positive control, prucalopride (10 mg/kg, p.o.) was administered and EMG signals were recorded for additional 3 h using Ponemah software (DSI, MA, USA). Animals were given access to only water during study. The recorded EMG signal was filtered using 20-50 Hz band filter and spiking activity was measured in bouts of 30 min using NeuroScore software (DSI, MA, USA).

[2] = Rat brain penetration study; format: in vivo; settings: brain/plasma, oral (gavage) 3 mg/kg, male Wistar rats, brain concentrations below LLOQ taken as zero, read-out: Single dose Brain Penetration (Cb/Cp)
Procedure: Male Wistar rats (225±25 g) were used as experimental animals. Three animals were housed in each cage. Animals were given water and food ad libitum throughout the experiment and maintained on a 12 h light/dark cycle.
Brain penetration was determined in discrete manner in rats. One day prior to dosing day, male Wistar rats were acclimatized. After acclimatization, the rats were grouped according to their weight. In each group, 3 animals were kept in individual cages and allowed free access to food and water. At each time point (0.5, 1, and 2 h) n=3 animals were used.
The compounds of formula (I) were suitably preformulated and administered orally at (free base equivalent) 3 mg/kg. Blood samples were collected via, cardiac puncture by using isoflurane anesthesia. The animals were sacrificed to collect brain tissue. Plasma was separated and brain samples were homogenized and stored frozen at −20° C. until analysis.
The concentrations of the compounds of formula (I) were quantified in plasma and brain homogenate by qualified LC-MS/MS method using a suitable extraction technique. The compounds of formula (I) were quantified in the calibration range of 1-2000 ng/mL in plasma and brain homogenate. Study samples were analyzed using calibration samples in the batch and quality control samples spread across the batch. Extent of brain-plasma ratio was calculated (Cb/Cp). Brain concentrations were found below LLOQ and a value of zero was considered for calculation purposes.

With `CC(C)n1c(=O)c(C(=O)NC2CC3CCC(C2)N3C[C@@H](O)CN(C)S(C)(=O)=O)cc2cccn21.O=C(O)C(O)C(O)C(=O)O` (single isomer, unassigned) [Example 2] as the compound, how does the “increase in myoelectric activity” value ([1]; 30 mg/kg, jejunum EMG spiking) read?
Its value is 97±31%.

And the myoelectric activity ([1]; 10 or 30 mg/kg)?
The myoelectric activity was “dose-dependent increase in myoelectric activity”.

What about the Kp [2] of the same compound?
Its Kp is 0.
